Test results from ChEMBL document CHEMBL1157980, “Guaianolides as immunomodulators. Synthesis and biological activities of dehydrocostus lactone, mokko lactone, eremanthin, and their derivatives” (J Nat Prod, 1999).
pIC50: −log10 of the molar value.

Key:
[1] = Inhibition of killing activity of CD8+ specific mouse CTL-OE4 cells; assay type: functional, cell-based
A549 = experiment: Inhibition of IL-1-beta-induced ICAM1 expression in human A549 cells; assay type: functional, cell-based

SMILES | pIC50 (A549) | pIC50 [1]
C=C1CC[C@@H]2[C@H]1[C@H]1OC(=O)[C@@H](C)[C@@H]1C[C@H]1O[C@@]21C | 3.93 | 3.37
C=C1C(=O)O[C@@H]2[C@H]3C(C)=CC[C@H]3C(=C)CC[C@@H]12 [ISODEHYDROCOSTUS LACTONE] | – | 4.80
C=C1CC[C@H]2C(C)=CCC3=C(C)C(=O)O[C@@H]3[C@@H]12 | 3.85 | < 4.00
C=C1CCC2=C(C)CC[C@H]3C(=C)C(=O)O[C@@H]3[C@@H]12 | 5.10 | 4.82
C=C1CC[C@H]2C(=C)CCC3=C(C)C(=O)O[C@@H]3[C@@H]12 | 3.35 | 4.30
C=C1CC[C@@]23O[C@]2(C)CC[C@@H]2[C@H](OC(=O)[C@H]2C)[C@@H]13 | 3.60 | < 3.00
C=C1CC[C@@H]2[C@H]1[C@H]1OC(=O)C(=C)[C@@H]1C[C@H]1O[C@@]21C | 5.22 | 5.10
C=C1CC[C@]23O[C@@]2(C)CC[C@H]2C(=C)C(=O)O[C@@H]2[C@@H]13 | 5.00 | 5.15
C=C1CC[C@@H]2[C@H](OC(=O)[C@H]2C)[C@H]2C(C)=CC[C@@H]12 | – | < 4.00
C=C1CC[C@H]2C(C)=CC[C@H]3C(=C)C(=O)O[C@@H]3[C@@H]12 [EREMANTHIN] | 4.34 | 4.96

More lines, main results first:

pIC50 (A549) | SMILES | pIC50 [1]
5.00 | C=C1CC[C@H]2C(=C)CC[C@H]3C(=C)C(=O)O[C@@H]3[C@@H]12 [DEHYDROCOSTUSLACTONE] | 4.85
5.15 | C=C1CC[C@@]23O[C@]2(C)CC[C@H]2C(=C)C(=O)O[C@@H]2[C@@H]13 | 5.15
3.87 | C=C1CC[C@]23O[C@@]2(C)CCC2=C(C)C(=O)O[C@@H]2[C@@H]13 | < 3.00
3.60 | C=C1CC[C@H]2C(=C)CC[C@@H]3[C@H](OC(=O)[C@H]3C)[C@@H]12 [MOKKO LACTONE] | < 3.00
3.30 | C=C1CC[C@]23O[C@@]2(C)CC[C@@H]2[C@H](OC(=O)[C@H]2C)[C@@H]13 | 3.22
